± gives the expanded uncertainty stated by the source.
Assay: activity coefficient (dimensionless); of the first substance listed, at infinite dilution; xn = mol fraction of the nth substance listed
Details: 100 kPa, Liquid, Chromatography, x1 = 0

SMILES	activity coefficient (308.15 K)	activity coefficient (318.15 K)	activity coefficient (328.15 K)	activity coefficient (338.15 K)	activity coefficient (348.15 K)	activity coefficient (358.15 K)	activity coefficient (368.15 K)	activity coefficient (378.15 K)	activity coefficient (388.15 K)	activity coefficient (398.15 K)	activity coefficient (408.15 K)
CC(C)CC(C)(C)C [2,2,4-trimethylpentane] + CC(O)C(=O)[O-].CC[N+]1(C)CCCC1	270 ± 23	242 ± 21	220 ± 19	201 ± 17	187 ± 16	173 ± 15	161 ± 14				
CCC[N+](=O)[O-] [1-nitropropane] + CC(O)C(=O)[O-].CC[N+]1(C)CCCC1		1.75 ± 0.15	1.8 ± 0.15	1.86 ± 0.16	1.92 ± 0.16	1.98 ± 0.17	2.06 ± 0.18				
C1CCOC1 [tetrahydrofuran] + CC(O)C(=O)[O-].CC[N+]1(C)CCCC1	3.51 ± 0.3	3.54 ± 0.31	3.59 ± 0.31	3.62 ± 0.31	3.68 ± 0.32	3.74 ± 0.32	3.82 ± 0.33				
C=CCCCCCCCC [1-decene] + CC(O)C(=O)[O-].CC[N+]1(C)CCCC1	349 ± 30	326 ± 28	302 ± 26	284 ± 25	268 ± 23	252 ± 22	238 ± 21				
C#CCCCCCC [1-octyne] + CC(O)C(=O)[O-].CC[N+]1(C)CCCC1	13.6 ± 1.2	14.2 ± 1.2	14.7 ± 1.3	15.5 ± 1.3	16 ± 1.4	16.6 ± 1.4	17.1 ± 1.5				
C1CCCCCC1 [cycloheptane] + CC(O)C(=O)[O-].CC[N+]1(C)CCCC1	69.7 ± 6	64.6 ± 5.6	60.3 ± 5.2	57 ± 4.9	53.8 ± 4.7	51 ± 4.4	47.8 ± 4.1				
CCC(C)(C)OC [2-methoxy-2-methylbutane] + CC(O)C(=O)[O-].CC[N+]1(C)CCCC1	27.9 ± 2.4	27.8 ± 2.4	27.3 ± 2.4	26.8 ± 2.3	26.3 ± 2.3	26.1 ± 2.3	25.8 ± 2.2				
CC1CCCCC1 [methylcyclohexane] + CC(O)C(=O)[O-].CC[N+]1(C)CCCC1	87.4 ± 7.6	80.7 ± 7	75 ± 6.5	69.7 ± 6	65.7 ± 5.7	61.8 ± 5.3	57.8 ± 5				
CC(C)=O [acetone] + CC(O)C(=O)[O-].CC[N+]1(C)CCCC1		1.93 ± 0.17	1.97 ± 0.17	2.03 ± 0.18	2.08 ± 0.18	2.14 ± 0.18	2.21 ± 0.19				
CCOCC [diethyl ether] + CC(O)C(=O)[O-].CC[N+]1(C)CCCC1	15.8 ± 1.4	15.6 ± 1.3	15.5 ± 1.3	15.1 ± 1.3	15 ± 1.3	15.1 ± 1.3	14.9 ± 1.3				
Cc1ccccc1 [toluene] + CC(O)C(=O)[O-].CC[N+]1(C)CCCC1		5.36 ± 0.46	5.5 ± 0.47	5.62 ± 0.48	5.76 ± 0.5	5.89 ± 0.51	6.06 ± 0.52				

Other lines, results leading:

activity coefficient (308.15 K)	activity coefficient (318.15 K)	activity coefficient (328.15 K)	activity coefficient (338.15 K)	activity coefficient (348.15 K)	activity coefficient (358.15 K)	activity coefficient (368.15 K)	activity coefficient (378.15 K)	activity coefficient (388.15 K)	activity coefficient (398.15 K)	activity coefficient (408.15 K)	SMILES
8.33 ± 0.72	8.83 ± 0.76	9.25 ± 0.8	9.82 ± 0.85	10.3 ± 0.9	10.7 ± 0.9	11.2 ± 1					C#CCCCCC [1-heptyne] + CC(O)C(=O)[O-].CC[N+]1(C)CCCC1
	4.7 ± 0.41	4.78 ± 0.41	4.85 ± 0.42	4.93 ± 0.43	5.01 ± 0.43	5.14 ± 0.44					CCCC(C)=O [pentan-2-one] + CC(O)C(=O)[O-].CC[N+]1(C)CCCC1
	4.84 ± 0.42	4.93 ± 0.43	5.05 ± 0.44	5.14 ± 0.44	5.22 ± 0.45	5.35 ± 0.46					CCC(=O)CC [pentan-3-one] + CC(O)C(=O)[O-].CC[N+]1(C)CCCC1
787 ± 68	725 ± 63	651 ± 57	597 ± 52	542 ± 47	496 ± 43	456 ± 40					CCCCCCCCCC [decane] + CC(O)C(=O)[O-].CC[N+]1(C)CCCC1
122 ± 11	111 ± 10	102 ± 9	94.5 ± 8.2	88.7 ± 7.7	83.5 ± 7.2	78.4 ± 6.8					CCC(C)CC [3-methylpentane] + CC(O)C(=O)[O-].CC[N+]1(C)CCCC1
56 ± 4.8	53.3 ± 4.6	50.9 ± 4.4	48.7 ± 4.2	46.6 ± 4	44.7 ± 3.9	42.9 ± 3.7					C=CCCCC [hex-1-ene] + CC(O)C(=O)[O-].CC[N+]1(C)CCCC1
					0.174 ± 0.03	0.187 ± 0.03	0.201 ± 0.031	0.219 ± 0.031	0.234 ± 0.032	0.255 ± 0.033	CCO [ethanol] + CC(O)C(=O)[O-].CC[N+]1(C)CCCC1
334 ± 29	307 ± 27	275 ± 24	254 ± 22	236 ± 20	217 ± 19	200 ± 17					CCCCCCCC [octane] + CC(O)C(=O)[O-].CC[N+]1(C)CCCC1
	8.06 ± 0.7	8.06 ± 0.7	8.12 ± 0.7	8.19 ± 0.71	8.25 ± 0.71	8.4 ± 0.73					CCCC(=O)CC [3-hexanone] + CC(O)C(=O)[O-].CC[N+]1(C)CCCC1
	7.46 ± 0.64	7.56 ± 0.65	7.6 ± 0.66	7.74 ± 0.67	7.84 ± 0.68	8.01 ± 0.69	8.08 ± 0.7				CCCC(=O)OC [methyl butanoate] + CC(O)C(=O)[O-].CC[N+]1(C)CCCC1
	7.09 ± 0.61	7.16 ± 0.62	7.22 ± 0.62	7.31 ± 0.63	7.39 ± 0.64	7.54 ± 0.65					CCCCC(C)=O [2-hexanone] + CC(O)C(=O)[O-].CC[N+]1(C)CCCC1
	5.04 ± 0.43	5.14 ± 0.44	5.23 ± 0.45	5.32 ± 0.46	5.43 ± 0.47	5.56 ± 0.48	5.66 ± 0.49				CCOC(C)=O [ethyl acetate] + CC(O)C(=O)[O-].CC[N+]1(C)CCCC1
145 ± 13	136 ± 12	127 ± 11	120 ± 10	114 ± 10	108 ± 9	103 ± 9					C=CCCCCCC [oct-1-ene] + CC(O)C(=O)[O-].CC[N+]1(C)CCCC1
	2.95 ± 0.25	3.03 ± 0.26	3.1 ± 0.27	3.18 ± 0.27	3.25 ± 0.28	3.37 ± 0.29	3.45 ± 0.3				COC(C)=O [methyl ethanoate] + CC(O)C(=O)[O-].CC[N+]1(C)CCCC1

Reference: the NIST ThermoML archive (doi:10.1016/j.jct.2015.05.014)
